From patent US20010036460A1, “Targeted death cancer cells” (priority 2000, published 2001)

Experiments:
[1] = tested on: LNCaP cells stably transfected with the plasmid p22EDT1; experiment: Trypan blue exclusion cell viability assay after 48 hours culture with 4-OHT (FIG. 3); assay type: cell-based, human; conditions: 4-OHT of varying concentrations
Description: FIG. 3. […] Parental LNCAP cells (blue) and LNCaP cells stably transfected with the plasmid p22EDT1 (red) were cultured in the presence of 4-OHT of varying concentrations for 48 hours after which the trypan blue exclusion assay was used to assess cell viability. p22EDT1 contains an SV40 promoter driving an FLP-ERt gene sequence and a CMV promoter driving a DT-A sequence disrupted by an FRT-puro/pA-FRT cassette.

[2] = tested on: PC-3 cells co-infected with the bcl2/FLP-ERt and RSV/FRT2puroDT-A containing adenoviruses; experiment: In vitro test of gene therapy system: viable and clonogenic cell number after 4-OHT; assay type: cell-based, human; conditions: co-infected PC-3 cells, 4-OHT-treated versus non-treated cultures; 1, 2, 3 μM, 48 hours
Description: PC-3 cells are co-infected with the bcl2/FLP-ERt and RSV/FRT2puroDT-A containing adenoviruses. Cell death resulting from administration of the synthetic ligand 4-hydroxytamoxifen (4-OHT) is tested in cultured cells. Adenoviral infection is carried out by the addition of viral solutions of varying ratios of the two viruses and at varying degrees of multiplicity of infection to cell monolayers. After three hours of exposure to virus, the medium is changed and cells are incubated in fresh medium containing 4-OHT. Three concentrations of 4-OHT are tested: 1, 2, and 3 μM. After 48 hours incubation with 4-OHT, the number of viable cells are determined using the Trypan blue exclusion assay and the MTT assay (8). Since DT-A kills irreversibly by both apoptosis, as well as nonapoptotic pathways (39), the number of apoptotic cells is also determined. In addition, the growth potential of cells following treatment with tamoxifen is determined using a clonogenic assay (8).
In infected cells, the binding of 4-OHT to the FLP-ERt fusion protein will activate FLP. This in turn will result in recombinational excision of the FRT-puropA-FRT sequence, expression of the DT-A subunit, and cell death. […] Control infections are done with the RSV/FRT2puroDT-A virus alone and with the RSV/puro virus. […]

PC-3 xenografts = experiment: In vivo test of gene therapy system: PC-3 xenograft tumor volume after 4-OHT; design: species or system male BALB/c nu/nu athymic mice
Description: To further test the efficacy of the regulated recombination system for targeting DT-A to bcl-2 expressing cells, xenografts are generated in male BALB/c nu/nu athymic mice by the subcutaneous injection of PC-3 cells (38,40,42). To generate tumors, […] are mixed with Matrigel basement membrane matrix and injected subcutaneously into the flank of a mouse (38). When tumors reach a volume of about 50 mm^3, a mixture of bcl2/FLP-ERt and RSV/FRT2puroDT-A containing virus is injected directly into the tumor site. A 1:1 ratio of the two viruses is maintained, while the total number of plaque forming units varies (10^9, 5×10^9, and 10^10). Twenty-four hours after injection of the virus, 4-OHT is administered to the host mice either by a single injection directly into the tumor (100 μl of a 3 μM solution in PBS) or by intraperitoneal injection on five consecutive days (1 mg in 100 μl sunflower seed oil). At one, two, and three weeks following the administration of 4-OHT, mice are euthanized, tumors are excised, and their volume and wet weight determined. Tumor volume is calculated by multiplying caliper measurements of length, width, and depth and then multiplying by 0.5236 (23). […] Tumors are fixed and processed for histopathological examination. Other control groups in this study are xenografts infected only with the RSV/FRT2puroDT-A virus and xenografts injected only with PBS.

Question: 4-hydroxytamoxifen [4-OHT] was tested. Which “cell viability (DTA expression and cell death)” value [1] did it give?
Answer: The value was “results in DTA expression and cell death”.

Question: What about the “number of viable and clonogenic cells” value [2] of the same substance?
Answer: The value was “significantly reduced”.

Question: And the tumor size (PC-3 xenografts; control xenografts infected only with the RSV/FRT2puroDT-A virus or injected only with PBS)?
Answer: Its tumor size is “no effect on tumor size”.

Question: And the tumor volume (PC-3 xenografts; xenografts injected with 1:1 mixture of bcl2/FLP-ERt and RSV/FRT2puroDT-A virus, 4-OHT intratumoral or intraperitoneal, versus vehicle-treated control mice)?
Answer: The tumor volume was “significantly less”.
